Tests used:
[1] = test system: calf thymus DNA; assay: Covalent binding test of [3H]-B[a]P to DNA; type: biochemical; details: 37°C, 30 minutes, control (0 µM) 60±7.1
Method: 2ml of the mixture of 50mM potassium phosphate buffer (pH 7.4) containing 0.25µg of [^3H]-B[a]P(specific activity: 12.35mCi/mmol), 2mg of calf thymus DNA, 25mg of EDTA, NADPH(0.65mM), and 4 mg of hepatic postmitochondrial supernatant was incubated with isopropyl 2-(1,3-dithietan-2-ylidene)-2-[N-(4-methylthiazol-2yl)carbamoyl]acetate of various concentrations at 37°C for 30 minutes.
DNA was isolated by ethanol precipitation after the removal of proteins. DNA pellets thus obtained were successively rinsed with 75% ethanol containing 1% NaCl, 75% ethanol, absolute ethanol, acetone and ethyl ether, and then dried.
Dried DNA samples were dissolved in 15 mM NaCl-1.5mM sodium citrate buffer(pH 7.0). The DNA concentration was determined by diphenylamine method using calf thymus DNA as a standard[see K. Burton and G.B. Peterson, Biochem. J., 75, pp.17-27, 1960].
Aliqouts of DNA solutions were dissolved in Solvable(Du Pont/NEN Research Products, Boston, MA). After neutralization with glacial acetic acid, the levels of radio-labeled hydrocarbons covalently bound to DNA were determined by employing a liquid scintillation counter with the addition of Liquescent(National Diagnostics, Manville, NJ) as a cocktail.

[2] = test system: Salmonella typhimurium TA100; assay: Ames His+ reversion assay, mutagenesis induced by VC epoxide; type: cell-based
Method: (§1) The Ames His+ reversion assay was performed in accordance with the liquid preincubation method using Salmonella typhimurium TA100 as a test strain[see D.M. Maton and B. N. Ames, Mutation Res., 113, pp. 173-221(1983)].
(§2) 25nmol of BPDE was incubated with S. typhimurium TA100 in the absence or presence of a given amount of isopropyl 2-(1,3-dithietan-2-ylidene)-2-[N-(4-methylthiazol-2-yl)carbamoyl]acetate at 37 °C for 20 minutes.
(§3) Then, the mixture was diluted with soft agar, poured onto hard agar plates, and incubated for another 48 hours to allow the development of His+ revertant colonies. The data are expressed as average of values from duplicate analysis.
The procedure of Test Example 1-2 was repeated except that Salmonella typhimurium TA100 was used as a test strain and vinyl carbamate epoxide(25 and 50nmol) was used as mutagens.

[3] = test system: Salmonella typhimurium TA100; assay: Ames His+ reversion assay, mutagenesis induced by B[a]P (liquid preincubation, S9); type: cell-based; details: 2.5µg B[a]P, control (0 µg) 248±26.0
Method: (§4) Male Sprague-Dawley rats (40 to 45 day old) were fed with a standard laboratory pellet diet and water ad libitum under standard conditions(12h light-12h dark cycle, temp.: 21±2°C). They were treated intraperitoneally with Aroclor 1254 (500mg/kg in corn oil) for 5 consecutive days prior to sacrifice. Rats were killed by CO2 asphyxiation, and their livers were immediately removed and perfused in situ with ice-cooled isotonic KCl solution. The liver tissue was weighed, minced, and homogenized in 3-fold volumes of ice-cooled 0.25M sucrose solution by employing a motorized Potter-Elvehjem glass-Teflon homogenizer. The homogenates were centrifuged at 9,000 X g for 30 minutes and the supernatant(S9 fraction) was used as the source of enzymes.
(§5) The Ames His+ reversion assay was performed in accordance with the liquid preincubation method using Salmonella typhimurium TA98 and TA100 as test strains[see D.M. Maton and B. N. Ames, Mutation Res., 113, pp. 173-221(1983)].
(§6) Each of TA98 and TA100(1 to 2 x 10^9/plate) and 2.5µg of B[a]P dissolved in DMSO were added to the Aroclor 1254-induced rat hepatic postmitochondrial supernatant containing NADPH-generating system obtained above([…] containing about 2mg protein). Various amounts of isopropyl 2-(1,3-dithietan-2-ylidene)-2-[N-(4-methylthiazol-2-yl)carbamoyl]acetate were added thereto, and preincubated at 37°C for 20 minutes.
(§7) The mixture was then diluted with soft agar, poured onto hard agar plates, and incubated for another 48 hours to allow the development of His+ revertant colonies. The data were corrected for the numbers of spontaneous revertant.

[4] = test system: Salmonella typhimurium TA98; assay: as above; type: cell-based; details: 2.5µg B[a]P, control (0 µg) 116±3.6
Method: as §4, §5, §6, §7

[5] = test system: Salmonella typhimurium TA100; assay: Ames His+ reversion assay, mutagenesis induced by BPDE; type: cell-based; details: 25nmol BPDE; for No. of His+ revertant/plate: control (0 µg) 706
Method: as §1, §2, §3

[6] = test system: mouse skin tumor; assay: Mouse skin tumor test, carcinogenesis induced by B[a]P or VC (gavage pretreatment, TPA promotion); type: in vivo, female CD-1 mice; details: 16 weeks, diallyl sulfide 0.2mg/10µl/g body wt.
Method: (§8) Inhibitory effect of isopropyl 2-(1,3-dithietan-2-ylidene)-2-[N-(4-methylthiazol-2-yl)carbamoyl]acetate on mouse skin tumor was also investigated.
trioctanoin, or isopropyl 2-(1,3-dithietan-2-ylidene)-2-[N-(4-methylthiazol-2-yl)carbamoyl]acetate(0.15mg/10µl/g body wt.) or diallyl sulfide(0.2mg/10µl/g body wt.) suspended in trioctanoin were administered to female CD-1 mice(6 weeks old) by gastric gavage method 24 hours and 1 hour prior to the intraperitoneal injection of B[a]P(0.3µmol) or VC(11.5µmol) in 0.2ml acetone or the same volume of acetone alone.
One week after the initiation, animals were administered topically with 15nmol TPA(12-O-tetradecanoyl phorbol-13-acetate) in 0.1ml acetone twice a week to promote carcinogenesis.
Tumors of at least 1 mm in diameter were counted and recorded at 16 weeks after initiation.

[7] = test system: Salmonella typhimurium TA100 and TA1535; assay: Ames His+ reversion assay, mutagenesis induced by VC (Figure 1); type: cell-based; details: vinyl carbamate 10µmol; compound 2.5µg and 25µg; values only in Figure 1
Method: as §4, §5
[…] Various amounts of isopropyl 2-(1,3-dithietan-2-ylidene)-2-[N-(4-methylthiazol-2-yl)carbamoyl]acetate were added thereto, and preincubated at 37°C for 20 minutes.
The mixture was then diluted with soft agar, poured onto hard agar plates, and incubated for another 48 hours to allow the development of His+ revertant colonies. The data were corrected for the numbers of spontaneous revertant. […]

[8] = test system: mouse skin tumor; assay: Mouse skin tumor test, carcinogenesis induced by VC (topical initiation, TPA promotion); type: in vivo, female ICR mice; details: VC 5.8 µmol topical, pretreatment 2.5µmol compound or 8µmol diallyl sulfide
Method: as §8
The dorsal region of female ICR mice (6- to 7-week old) was shaved. Groups of 30 mice were administered with 2.5µmol isopropyl 2-(1,3-dithietan-2-ylidene)-2-[N-(4-methylthiazol-2-yl)carbamoyl]acetate in 0.2% sodium carboxymethyl cellulose or 8µmol of diallyl sulfide in 0.1M sterilized potassium phosphate buffer. After 10 minutes, the mice were administered topically with VC(5.8 µmol) in 0.2ml acetone containing 15% DMSO. Control group was administered with VC alone.
One week after the initiation, the mice were administered topically with 15nmol TPA(12-O-tetradecanoyl phorbol-13-acetate)in 0.1 ml acetone twice a week to promote carcinogenic process.
Tumors of at least 1 mm in diameter were counted and recorded every other week. The results are shown in Table V. Numbers in parentheses indicate the % of tumor bearing mice.

[9] = initiator B[a]P 0.3µmol, gavage pretreatment compound 0.15mg/10µl/g, trioctanoin control 6.7±5.1
[10] = initiator B[a]P 0.3µmol, gavage pretreatment compound 0.15mg/10µl/g, trioctanoin control 92
[11] = initiator VC 11.5µmol, gavage pretreatment compound 0.15mg/10µl/g, trioctanoin control 1.0±1.6
[12] = initiator VC 11.5µmol, gavage pretreatment compound 0.15mg/10µl/g, trioctanoin control 58
[13] = initiator acetone alone, gavage 24 hours and 1 hour before, compound 0.15mg/10µl/g

SMILES: Cc1csc(NC(=O)C(C(=O)OC(C)C)=C2SCS2)n1 [Compound, Isopropyl 2-(1,3-dithietan-2-ylidene)-2-[N-(4-methylthiazol-2-yl)carbamoyl]acetate]
- Covalent DNA binding ([1]; compound 5 µM): 22 ± 2.0 pmol
- Covalent DNA binding ([1]; compound 50 µM): 16 ± 3.2 pmol
- No. of His+ revertant/plate ([2]; VC epoxide 25 nmol, compound 2.5 µg, control (0 µg) 283): 247
- No. of His+ revertant/plate ([2]; VC epoxide 25 nmol, compound 10 µg, control (0 µg) 283): 239
- No. of His+ revertant/plate ([2]; VC epoxide 25 nmol, compound 25 µg, control (0 µg) 283): 201
- No. of His+ revertant/plate ([2]; VC epoxide 50 nmol, compound 2.5 µg, control (0 µg) 598): 541
- No. of His+ revertant/plate ([2]; VC epoxide 50 nmol, compound 10 µg, control (0 µg) 598): 509
- No. of His+ revertant/plate ([2]; VC epoxide 50 nmol, compound 25 µg, control (0 µg) 598): 471
- No. of His+ revertant/plate ([3]; compound 1 µg): 205±23.1
- No. of His+ revertant/plate ([3]; compound 5 µg): 140±4.6
- No. of His+ revertant/plate ([3]; compound 25 µg): 93±8.7
- No. of His+ revertant/plate ([4]; compound 1 µg): 84±16.1
- No. of His+ revertant/plate ([4]; compound 5 µg): 48±3.2
- No. of His+ revertant/plate ([4]; compound 25 µg): 23±2.5
- % inhibition ([5]; compound 2.5 µg): 58%
- No. of His+ revertant/plate ([5]; compound 2.5 µg): 301
- % inhibition ([5]; compound 10 µg): 69%
- No. of His+ revertant/plate ([5]; compound 10 µg): 217
- % inhibition ([5]; compound 25 µg): 74%
- No. of His+ revertant/plate ([5]; compound 25 µg): 180
- Ave. No. of tumor/mouse [6, 9]: 2.8±3.4
- % mice with papillomas [6, 10]: 72%
- Ave. No. of tumor/mouse [6, 11]: 0.5±0.8
- % mice with papillomas [6, 12]: 36%
- % mice with papillomas [6, 13]: 0%
- Ave. No. of tumor/mouse [6, 13]: 0
- effect on mutagenesis induced by VC [7]: dose-dependently inhibit
- Average No. of papillomas/mouse ([8]; week 14, VC alone 0.9±1.1): 0.2±0.5
- % of tumor bearing mice ([8]; week 14, VC alone 53): 20%
- Average No. of papillomas/mouse ([8]; week 16, VC alone 1.4±1.7): 0.4±0.7
- % of tumor bearing mice ([8]; week 16, VC alone 63): 30%
- Average No. of papillomas/mouse ([8]; week 18, VC alone 1.8±1.9): 0.6±0.9
- % of tumor bearing mice ([8]; week 18, VC alone 67): 40%
- Average No. of papillomas/mouse ([8]; week 20, VC alone 2.4±2.1): 0.8±1.0
- % of tumor bearing mice ([8]; week 20, VC alone 70): 50%

SMILES: C=CCSCC=C [Diallyl sulfide, reference compound]
- Ave. No. of tumor/mouse [6, 9]: 4.0±5.6
- % mice with papillomas [6, 10]: 64%
- Ave. No. of tumor/mouse [6, 11]: 0.4±0.9
- % mice with papillomas [6, 12]: 28%
- % mice with papillomas [6, 13]: 0%
- Ave. No. of tumor/mouse [6, 13]: 0
- Average No. of papillomas/mouse ([8]; week 14, VC alone 0.9±1.1): 0.2±0.5
- % of tumor bearing mice ([8]; week 14, VC alone 53): 17%
- Average No. of papillomas/mouse ([8]; week 16, VC alone 1.4±1.7): 0.5±0.9
- % of tumor bearing mice ([8]; week 16, VC alone 63): 30%
- Average No. of papillomas/mouse ([8]; week 18, VC alone 1.8±1.9): 0.7±1.1
- % of tumor bearing mice ([8]; week 18, VC alone 67): 37%
- Average No. of papillomas/mouse ([8]; week 20, VC alone 2.4±2.1): 0.9±1.1
- % of tumor bearing mice ([8]; week 20, VC alone 70): 50%
